Data from ChEMBL document CHEMBL5512674, “Novel Acyl Thiourea-Based Hydrophobic Tagging Degraders Exert Potent Anti-Influenza Activity through Two Distinct Endonuclease Polymerase Acidic-Targeted Degradation Pathways” (J Med Chem, 2024).
The source made the active and inactive calls. The calls are words filed in the database; no cut-off is given here.

Columns and labels:
[1] = Hepatic extraction ratio in dog liver microsomes preincubated for 5 mins followed by NADPH addition and measured for 45 mins by LC-MS analysis; type: ADME, Canis lupus familiaris, Microsome; conditions: time 50 min, read-out: ERH
[2] = Binding affinity to Influenza A virus A/WSN/33(H1N1) flag tagged Polymerase acidic protein assessed as dissociation constant incubated for 48 hrs by microscale thermophoresis assay; conditions: hek293t
[3] = target: T1, von Hippel-Lindau disease tumor suppressor/Polymerase acidic protein (Influenza A virus (A/Puerto Rico/8/1934(H1N1))) (UniProt P03433+P40337); assay: PROTAC activity at Influenza A virus A/WSN/33(H1N1) flag tagged Polymerase acidic protein/VHL (unknown origin) expressed in HEK293T cells assessed as degradation of PA expression incubated for 2 to 10 hrs in presence of CHX by Western blotting analysis; type: cell-based; conditions: time 2-10 hrs
[4] = Hepatic clearance in mouse liver microsomes preincubated for 5 mins followed by NADPH addition and measured for 45 mins by LC-MS analysis; type: ADME, Microsome; conditions: time 50 min
[5] = target: von Hippel-Lindau disease tumor suppressor/Polymerase acidic protein (Influenza A virus (A/Puerto Rico/8/1934(H1N1)), UniProt P03433+P40337); assay: PROTAC activity at Influenza A virus A/WSN/33(H1N1) flag tagged Polymerase acidic protein/VHL (unknown origin) expressed in HEK293T cells assessed as degradation of PA expression incubated for 24 hrs by Western blotting analysis; type: cell-based
[6] = Cytotoxicity against human HEK293T cells assessed as reduction in cell viability incubated for 48 hrs by CCK-8 assay; type: toxicity, cell-based, HEK-293T
[7] = system: Influenza B virus; assay: Anti-influenza activity against Influenza B virus Victoria/2/87 infected in HEK293T cells assessed as reduction in virus-induced cytopathic effect incubated for 48 hrs by CCK-8 assay; type: functional, organism-based; conditions: Victoria/2/87, HEK-293T
[8] = Intrinsic clearance in dog liver microsomes preincubated for 5 mins followed by NADPH addition and measured for 45 mins by LC-MS analysis; type: ADME, Canis lupus familiaris, Microsome; conditions: time 50 min, read-out: CLH
[9] = target: T1, von Hippel-Lindau disease tumor suppressor/Polymerase acidic protein (Influenza A virus (A/Puerto Rico/8/1934(H1N1))); assay: PROTAC activity at Influenza A virus A/WSN/33(H1N1) flag tagged Polymerase acidic protein/VHL (unknown origin) expressed in HEK293T cells assessed as degradation of PA expression at 5 uM incubated for 24 hrs in presence of dipeptide RA by Western blotting analysis; type: cell-based
[10] = target: T2, von Hippel-Lindau disease tumor suppressor/Polymerase basic protein 1 (Influenza A virus (strain A/Puerto Rico/8/1934 H1N1)) (UniProt P03431+P40337); assay: PROTAC activity at Influenza A virus A/WSN/33(H1N1) flag tagged Polymerase basic protein 1/VHL (unknown origin) expressed in HEK293T cells assessed as degradation of PB1 expression at 0.1 to 10 uM incubated for 24 hrs by Western blotting analysis; type: cell-based; conditions: dose 0.1-10 µM
T2 sequence (P03431 whole entry, looked up): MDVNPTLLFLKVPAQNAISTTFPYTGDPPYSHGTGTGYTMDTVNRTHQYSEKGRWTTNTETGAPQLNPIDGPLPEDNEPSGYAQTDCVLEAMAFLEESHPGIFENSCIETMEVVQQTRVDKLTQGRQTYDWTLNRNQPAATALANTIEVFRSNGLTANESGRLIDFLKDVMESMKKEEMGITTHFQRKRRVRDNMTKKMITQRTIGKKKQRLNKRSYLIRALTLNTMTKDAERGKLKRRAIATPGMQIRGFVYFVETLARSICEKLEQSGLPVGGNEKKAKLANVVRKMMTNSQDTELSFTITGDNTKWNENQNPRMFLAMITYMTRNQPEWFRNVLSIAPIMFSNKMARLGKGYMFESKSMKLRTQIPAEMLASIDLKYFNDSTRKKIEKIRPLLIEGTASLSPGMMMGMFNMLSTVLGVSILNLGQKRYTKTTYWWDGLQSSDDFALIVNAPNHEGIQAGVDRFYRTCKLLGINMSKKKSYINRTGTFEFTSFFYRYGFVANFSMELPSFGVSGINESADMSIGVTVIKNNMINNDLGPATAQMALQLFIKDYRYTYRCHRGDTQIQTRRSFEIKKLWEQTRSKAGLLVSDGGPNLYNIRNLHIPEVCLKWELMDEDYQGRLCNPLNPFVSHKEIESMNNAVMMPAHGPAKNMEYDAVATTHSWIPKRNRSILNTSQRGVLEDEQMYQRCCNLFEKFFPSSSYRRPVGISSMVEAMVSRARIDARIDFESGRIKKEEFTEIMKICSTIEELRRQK
T2 sequence (P40337 whole entry, looked up): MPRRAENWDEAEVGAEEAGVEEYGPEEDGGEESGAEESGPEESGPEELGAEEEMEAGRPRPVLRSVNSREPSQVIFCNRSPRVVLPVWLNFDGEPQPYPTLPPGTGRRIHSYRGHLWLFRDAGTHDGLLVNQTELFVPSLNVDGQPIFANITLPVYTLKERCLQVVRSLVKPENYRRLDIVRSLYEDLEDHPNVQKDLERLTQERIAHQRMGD

[11] = target: T1, von Hippel-Lindau disease tumor suppressor/Polymerase acidic protein (Influenza A virus (A/Puerto Rico/8/1934(H1N1))); assay: PROTAC activity at Influenza A virus A/WSN/33(H1N1) flag tagged Polymerase acidic protein/VHL (unknown origin) expressed in HEK293T cells assessed as degradation of PA expression at 5 uM incubated for 24 hrs in presence of bortezomib by Western blotting analysis; type: cell-based
[12] = Stability in human plasma assessed as compound remaining measured after 120 mins by LC-MS/MS analysis; type: ADME, cell-free; conditions: read-out: Stability
[13] = target: T2, von Hippel-Lindau disease tumor suppressor/Polymerase basic protein 1 (Influenza A virus (strain A/Puerto Rico/8/1934 H1N1)); assay: PROTAC activity at Influenza A virus A/WSN/33(H1N1) flag tagged Polymerase basic protein 1/VHL (unknown origin) expressed in HEK293T cells assessed as degradation of PB1 expression at 1 ug/ml incubated for 24 hrs by Western blotting analysis; type: cell-based; conditions: dose 1.0 µg/ml
[14] = target: T1, von Hippel-Lindau disease tumor suppressor/Polymerase acidic protein (Influenza A virus (A/Puerto Rico/8/1934(H1N1))); assay: PROTAC activity at Influenza A virus A/WSN/33(H1N1) flag tagged Polymerase acidic protein/VHL (unknown origin) expressed in HEK293T cells assessed as degradation of PA expression at 10 uM incubated for 24 hrs by Western blotting analysis; type: cell-based
[15] = Half life in human liver microsomes preincubated for 5 mins followed by NADPH addition and measured for 45 mins by LC-MS analysis; type: ADME, Microsome; conditions: time 50 min
[16] = system: Enterovirus; assay: Antiviral activity against Enterovirus 71 infected in RD cells assessed as inhibition of viral replication incubated for 24 hrs by CCK-8 assay; type: functional, organism-based
[17] = system: enterovirus D68; assay: Antiviral activity against enterovirus D68 infected in RD cells assessed as inhibition of viral replication incubated for 24 hrs by CCK-8 assay; type: functional, organism-based
[18] = target: T1, von Hippel-Lindau disease tumor suppressor/Polymerase acidic protein (Influenza A virus (A/Puerto Rico/8/1934(H1N1))); assay: PROTAC activity at Influenza A virus A/WSN/33(H1N1) flag tagged Polymerase acidic protein/VHL (unknown origin) expressed in HEK293T cells assessed as degradation of PA expression at 0.02 to 10 uM incubated for 24 hrs by Western blotting analysis; type: cell-based; conditions: dose 0.02-10 µM
[19] = Stability in human plasma assessed as compound remaining by LC-MS/MS analysis; type: ADME, cell-free
[20] = system: Influenza A virus; assay: Anti-influenza activity against Influenza A virus A/WSN/33(H1N1) infected in HEK293T cells assessed as reduction in virus-induced cytopathic effect incubated for 48 hrs by CCK-8 assay; type: functional, organism-based; conditions: HEK-293T
[21] = Intrinsic clearance in mouse liver microsomes preincubated for 5 mins followed by NADPH addition and measured for 45 mins by LC-MS analysis; type: ADME, Microsome; conditions: time 50 min, read-out: CLH
[22] = target: T1, von Hippel-Lindau disease tumor suppressor/Polymerase acidic protein (Influenza A virus (A/Puerto Rico/8/1934(H1N1))); assay: PROTAC activity at Influenza A virus A/WSN/33(H1N1) flag tagged Polymerase acidic protein/VHL (unknown origin) expressed in HEK293T cells assessed as degradation of PA expression at 5 uM incubated for 24 hrs in presence of proteasome inhibitor MG-132 by Western blotting analysis; type: cell-based
[23] = Selectivity index, ratio of CC50 for cytotoxicity against human HEK293T cells to EC50 for anti-influenza activity against Influenza A virus A/WSN/33(H1N1) infected in HEK293T cells assessed as reduction in virus-induced cytopathic effect; type: toxicity, cell-based; conditions: read-out: Ratio CC50/EC50
[24] = Half life in human plasma by LC-MS/MS analysis; type: ADME, cell-free
[25] = target: Voltage-gated inwardly rectifying potassium channel KCNH2 (Homo sapiens, UniProt Q12809); assay: Inhibition of hERG; type: toxicity
Sequence of Voltage-gated inwardly rectifying potassium channel KCNH2 (Q12809 whole entry): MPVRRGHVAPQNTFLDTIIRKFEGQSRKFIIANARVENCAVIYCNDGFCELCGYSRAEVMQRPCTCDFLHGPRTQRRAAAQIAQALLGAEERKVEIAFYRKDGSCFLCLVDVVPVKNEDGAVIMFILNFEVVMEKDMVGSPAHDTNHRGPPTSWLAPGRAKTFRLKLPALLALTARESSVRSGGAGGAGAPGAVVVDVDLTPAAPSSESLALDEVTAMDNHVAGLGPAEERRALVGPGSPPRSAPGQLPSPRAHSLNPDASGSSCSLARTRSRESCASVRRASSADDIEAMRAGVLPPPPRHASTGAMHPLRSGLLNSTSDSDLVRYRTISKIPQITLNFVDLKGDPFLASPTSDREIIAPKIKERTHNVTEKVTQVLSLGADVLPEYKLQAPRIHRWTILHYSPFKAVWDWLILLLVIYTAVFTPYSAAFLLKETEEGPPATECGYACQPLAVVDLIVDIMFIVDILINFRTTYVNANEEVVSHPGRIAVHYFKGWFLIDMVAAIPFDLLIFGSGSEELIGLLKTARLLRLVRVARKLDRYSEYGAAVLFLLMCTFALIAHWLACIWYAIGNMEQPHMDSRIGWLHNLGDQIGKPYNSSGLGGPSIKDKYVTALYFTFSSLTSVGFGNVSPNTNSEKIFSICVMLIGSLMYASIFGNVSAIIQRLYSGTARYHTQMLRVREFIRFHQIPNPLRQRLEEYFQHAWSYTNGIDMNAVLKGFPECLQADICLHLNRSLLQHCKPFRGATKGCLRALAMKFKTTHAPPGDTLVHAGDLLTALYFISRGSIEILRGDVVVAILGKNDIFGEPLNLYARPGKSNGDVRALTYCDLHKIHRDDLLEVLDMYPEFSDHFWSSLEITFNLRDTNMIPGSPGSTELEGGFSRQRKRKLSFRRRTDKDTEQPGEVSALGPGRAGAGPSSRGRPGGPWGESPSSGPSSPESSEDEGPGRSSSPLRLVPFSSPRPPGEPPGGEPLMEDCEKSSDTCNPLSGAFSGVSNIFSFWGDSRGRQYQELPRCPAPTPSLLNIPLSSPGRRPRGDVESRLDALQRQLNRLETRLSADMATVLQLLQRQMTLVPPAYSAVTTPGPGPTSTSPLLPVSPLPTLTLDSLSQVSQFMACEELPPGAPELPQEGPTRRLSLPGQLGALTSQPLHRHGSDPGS

SMILES: CC(C)(C)OC(=O)NCCCC[C@H](NC(=O)OC(C)(C)C)C(=O)NCCCCCCCC(=O)Nc1ccc(NC(=S)NC(=O)c2ccc(C(C)(C)C)cc2)cc1
- hepatic extraction ratio at 0.75 h [1]: 0.851
- Kd [2]: 720 nM
- Activity [3]: Active
- CLhep predicted [4]: 58.8 mL/min/kg
- DC50 [5]: 60 nM
- CC50 at 48 h [6]: > 100000 nM
- EC50 [7]: 67 nM
- CLint scaled [8]: 177 mL/min/kg
- Activity [9]: inactive
- Activity [10]: inactive
- Activity [11]: inactive
- remaining at 2 h [12]: 72%
- Activity [13]: inactive
- Activity [14]: Active
- half-life [15]: 0.211 h
- Activity [16]: Active
- Activity [17]: Active
- Activity [18]: Active
- Stability [19]: 100%
- EC50 [20]: 15 nM
- CLint scaled [21]: 170 mL/min/kg
- Activity [22]: inactive
- selectivity ratio [23]: > 6670
- half-life [24]: 4.09 h
- inhibition (INH) [25]: Not Active
